In ChEMBL document CHEMBL4811258, “Potent Antimalarials with Development Potential Identified by Structure-Guided Computational Optimization of a Pyrrole-Based Dihydroorotate Dehydrogenase Inhibitor Series” (J Med Chem, 2021):

Experiments:
[1] = target: T1, Cytochrome P450 2B6 (Homo sapiens, UniProt P20813)
T1 sequence (P20813 whole entry): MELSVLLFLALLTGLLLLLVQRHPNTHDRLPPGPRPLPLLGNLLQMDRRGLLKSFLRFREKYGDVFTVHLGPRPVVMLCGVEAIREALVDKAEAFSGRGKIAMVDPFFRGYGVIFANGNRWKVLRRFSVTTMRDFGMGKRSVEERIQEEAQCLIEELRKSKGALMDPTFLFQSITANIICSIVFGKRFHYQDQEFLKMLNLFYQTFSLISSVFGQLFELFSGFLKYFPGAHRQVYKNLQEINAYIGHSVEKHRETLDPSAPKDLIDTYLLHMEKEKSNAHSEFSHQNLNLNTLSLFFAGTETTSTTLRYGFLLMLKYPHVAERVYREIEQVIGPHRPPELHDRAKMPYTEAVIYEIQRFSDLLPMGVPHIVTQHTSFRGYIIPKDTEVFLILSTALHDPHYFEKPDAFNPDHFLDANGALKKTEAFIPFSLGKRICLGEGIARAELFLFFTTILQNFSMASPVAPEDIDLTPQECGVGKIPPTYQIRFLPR

[2] = test system: Plasmodium falciparum; assay: Antimalarial activity against Plasmodium falciparum 3D70087/N9 infected in orally dosed NOD-SCID IL2Rgamma null mouse assessed as parasitemia level administered days after 3 post infection once daily for 4 days measured on day 7 by flow cytometry; type: functional; details: time 4 day
[3] = Plasma clearance in Swiss mouse at […], iv measured up to 24 hrs by LC-MS analysis; type: ADME, organism-based; details: dose 2.3 mg/kg
[4] = Unbound intrinsic clearance in mouse liver microsomes at 1 uM measured up to 4 hrs by LC-MS analysis; type: ADME, Microsome
[5] = test system: Plasmodium falciparum; assay: Antiplasmodial activity against Plasmodium falciparum 3D7 Uganda infected in human erythrocytes assessed as parasite killing using albumax media measured after 72 hrs by SYBR Green assay; type: functional, organism-based; details: 3D7, 72 h
[6] = rat, in vivo, po, 10 mg/kg, 24 h

With `Cc1c(C2(c3ccc(C(F)(F)F)nc3)CC2)c[nH]c1C(=O)NC(C)c1nc[nH]n1` (stereo in doubt; form 1) the IC50 [1] was > 20 µM, the ED50 [2] was 26 mg/kg and the clearance at 24 h [3] was 2.8 mL/min/kg. The CL free [4] was 17 µL/min/mg, the EC50 [5] was 7.5 nM and the AUC [6] was 47 µM·h.
